These results are taken from ChEMBL document CHEMBL1150755, “2,4,5-trimethoxystyrene, a bioactive component of the bark of Duguetia panamensis” (J Nat Prod, 1988).

Converted amounts (≈) assume the structure as drawn.

In one data set the test system is Artemia. Kind of data set: Toxicity in brine shrimp. The class given is organism-based. To be noted: in vivo.
Data set [1] can be described thus: Cytotoxicity against human 9KB cells. The class given is functional. To be noted: read-out: ED50 (the source's name).
A short description of data set [2]: Cytotoxicity against mouse 9PS cells. The format is functional. To be noted: read-out: ED50 (the source's name).

As a reminder, the LC50 is the concentration that kills 50% of the test population. In the data set on Artemia, `C=Cc1cc(OC)c(OC)cc1OC` yielded an LC50 of 8 ppm. For the same compound, the EC50 in data set [1] was 42 µg/mL (≈ 216 µM); in data set [2] it was 27 µg/mL (≈ 139 µM).
